# Assays:
# [1] = solubility of the drug in the acrylic-based polymer dermal composition
smiles,measurement,setting,value
Clc1cccc(Cl)c1N=C1NCCN1 [clonidine],clonidine flux,"increasing amount of hydroxy functional acrylic (DT 87-2287) versus carboxy functional DT 87-2852, FIG. 3, Examples 9-11 and Comparative Example 3 plotted",increases the flux of the clonidine
same,solubility of clonidine in the acrylic,[1]; in hydroxy functional acrylic compared with carboxy functional acrylic,lower solubility
O=C(CCCN1CCC(O)(c2ccc(Cl)cc2)CC1)c1ccc(F)cc1 [haloperidol],cumulative haloperidol flux,"increasing amount of non-functional acrylic (HRJ 4483) versus carboxy functional DT 87-2196, FIG. 1, Examples 2 and 4 and Comparative Example 1 plotted",flux of the haloperidol across the skin increases
same,solubility of the haloperidol in the dermal composition,[1]; increasing amount of non-functional acrylic in the dermal composition,reduces the solubility of the haloperidol
CN1CCCC1c1cccnc1 (centres unmarked) [nicotine],nicotine flux,"increasing amount of non-functional acrylic (HRJ 4483) versus carboxy functional DT 87-2852, FIG. 2, Examples 5-7 and Comparative Example 2 plotted",increasing flux

# Source: patent US20060233870A1, “Compositions and methods for drug delivery” (Noven Pharmaceuticals, Inc., priority 1999, published 2006)
